{"source": "patent US10729130B2", "about": "“Nematicidal compositions and methods of using them” (Eden Research plc, priority 2004, dated 2020)", "key": {"[1]": {"test_system": "root-knot juveniles", "test": "Effect of citral alone and citral and thymol on root-knot nematode juveniles", "type": "in vivo", "conditions": "average of 2 replicates", "description": "This was labelled 2500 ppm and was diluted to provide test solutions at 500, 250, 125 and 62.5 ppm.\nThis was marked 2500 ppm and diluted to provide test solutions at 500, 250, 125 and 62.5 ppm.\nControl—Water was used as the control.\nNematode juveniles were collected in water and 0.1 to 0.15 ml added to each well of a plastic assay plate. 1.0 ml of the test solutions was added to each well. Observations were made microscopically after 24 and 48 hours as described in Example 4. […] Living nematodes move in an undulating, wave-like motion.\nThe results of two experiments are provided below in Tables 7 and 8."}, "[2]": {"test_system": "root-knot nematodes", "test": "Effect of pH on the nematicidal activity of citral (fresh and one-day old solutions)", "type": "in vivo, root-knot nematode", "description": "Test solutions of these three concentrations were prepared at different pHs by adjusting the pH with HCl or NaOH to pH 4, 7 and 10.\nOne batch of test solutions was used immediately and another was left for 24 hours before use. The method of administration to the nematodes and counting the kill rate is the same as for previous protocols.\nThe results are shown below in Tables 11 and 12."}, "[3]": {"test_system": "Citrus nematodes", "test": "Nematicidal effects of citral in soil, Citrus nematodes", "type": "in vivo, citrus nematode", "description": "Methodology: Nematodes used for the analysis originated from commercial agricultural crop soils. Species of nematode included root-knot and citrus. Prior to commencement of each study the nematodes were counted and evaluated for viability. In each experiment soil samples were infected with only one species of nematode. Three measured quantities of soil (250 g) were placed into large PVC plastic containers.\nSoil moisture was assessed by weighing a soil sample and then drying the sample in a drying oven. Soil moisture content was confirmed using a “Hydroscout” instrument. In all cases the moisture content measured by both methods was within the resolution of the instruments. By determining the water content of the soil it was possible to calculate the volume of terpene solution which would be diluted when mixed with the soil.\nThese dilutions were by volume not the more commonly used mass ratios. The reason for using volume dilutions was simply one of convenience enabling the use of a micropipette or cylinder to measure the terpene. The mass ratio of the ‘in soil’ and ‘in water’ solution could be simply calculated by multiplying the ppm of terpene by it's density (0.92 g/ml).\nThe terpene solution was added to each test tube containing a weighed sample of nematode infected soil. The terpene solution and soil were mixed by inverting the test tube several times. The test tubes containing the soil and terpene solution were left to stand in racks in the laboratory for 48 hours-72 hours depending on the survival of the untreated nematodes. In each experiment a control group was treated with distilled water. The % mortality (kill) rates in the treatment groups was compared with the control population.\nThe nematodes were extracted by “Sieving & mist extraction” (Ayoub, S. M. 1977) prior to being counted.\nCriteria for Evaluation: Nematode counts were performed to determine the proportion of nematodes which survived and were killed in each treatment group.\nThe results are shown below on Table 17 to 19."}, "[4]": {"test_system": "root-knot nematodes", "test": "Nematicidal activity of citral on root-knot nematodes (selectivity experiment)", "conditions": "250 ppm", "from_the_text": "Living saprophagus nematodes move rapidly in water. The control used was the nematodes in water alone.\nThe figures given are for the percentage of nematodes found to be dead upon microscopic examination and are the average of 2 replicates."}}, "note": "Several values for one entry are separate records, joined by “and”; a condition that tells them apart may be missing. Equal entries are not always repeated.", "data": [{"compound": "CC(C)=CCCC(C)=CC=O", "note": "[Citral, citral]", "values": [{"measurement": "percentage of nematodes dead", "setting": "[1]; Table 7 experiment, 125 ppm, 24 h", "result": 100, "unit": "%"}, {"measurement": "percentage of nematodes dead", "setting": "[1]; Table 7 experiment, 125 ppm, 48 h", "result": 24, "unit": "%"}, {"measurement": "percentage of nematodes dead", "setting": "[1]; Table 7 experiment, 250 ppm, 24 h", "result": 100, "unit": "%"}, {"measurement": "percentage of nematodes dead", "setting": "[1]; Table 7 experiment, 250 ppm, 48 h", "result": 91, "unit": "%"}, {"measurement": "percentage of nematodes dead", "setting": "[1]; Table 7 experiment, 500 ppm, 24 h", "result": 98, "unit": "%"}, {"measurement": "percentage of nematodes dead", "setting": "[1]; Table 7 experiment, 500 ppm, 48 h", "result": 97, "unit": "%"}, {"measurement": "percentage of nematodes dead", "setting": "[1]; Table 8 experiment, 62.5 ppm, 24 h", "result": 98, "unit": "%"}, {"measurement": "percentage of nematodes dead", "setting": "[1]; Table 8 experiment, 125 ppm, 24 h", "result": 94, "unit": "%"}, {"measurement": "percentage of nematodes dead", "setting": "[1]; Table 8 experiment, 250 ppm, 24 h", "result": 94, "unit": "%"}, {"measurement": "% nematodes dead", "setting": "[2]; fresh citral, 62.5 ppm, pH 4, 24 h", "result": 48, "unit": "%"}, {"measurement": "% nematodes dead", "setting": "[2]; fresh citral, 62.5 ppm, pH 4, 48 h", "result": 50, "unit": "%"}, {"measurement": "% nematodes dead", "setting": "[2]; fresh citral, 62.5 ppm, pH 7, 24 h", "result": 39, "unit": "%"}, {"measurement": "% nematodes dead", "setting": "[2]; fresh citral, 62.5 ppm, pH 7, 48 h", "result": 44, "unit": "%"}, {"measurement": "% nematodes dead", "setting": "[2]; fresh citral, 62.5 ppm, pH 10, 24 h", "result": 32, "unit": "%"}, {"measurement": "% nematodes dead", "setting": "[2]; fresh citral, 62.5 ppm, pH 10, 48 h", "result": 45, "unit": "%"}, {"measurement": "% nematodes dead", "setting": "[2]; fresh citral, 125 ppm, pH 4, 24 h", "result": 31, "unit": "%"}, {"measurement": "% nematodes dead", "setting": "[2]; fresh citral, 125 ppm, pH 4, 48 h", "result": 50, "unit": "%"}, {"measurement": "% nematodes dead", "setting": "[2]; fresh citral, 125 ppm, pH 7, 24 h", "result": 44, "unit": "%"}, {"measurement": "% nematodes dead", "setting": "[2]; fresh citral, 125 ppm, pH 7, 48 h", "result": 47, "unit": "%"}, {"measurement": "% nematodes dead", "setting": "[2]; fresh citral, 125 ppm, pH 10, 24 h", "result": 39, "unit": "%"}, {"measurement": "% nematodes dead", "setting": "[2]; fresh citral, 125 ppm, pH 10, 48 h", "result": 39, "unit": "%"}, {"measurement": "% nematodes dead", "setting": "[2]; fresh citral, 250 ppm, pH 4, 24 h", "result": 75, "unit": "%"}, {"measurement": "% nematodes dead", "setting": "[2]; fresh citral, 250 ppm, pH 4, 48 h", "result": 73, "unit": "%"}, {"measurement": "% nematodes dead", "setting": "[2]; fresh citral, 250 ppm, pH 7, 24 h", "result": 73, "unit": "%"}, {"measurement": "% nematodes dead", "setting": "[2]; fresh citral, 250 ppm, pH 7, 48 h", "result": 72, "unit": "%"}, {"measurement": "% nematodes dead", "setting": "[2]; fresh citral, 250 ppm, pH 10, 24 h", "result": 83, "unit": "%"}, {"measurement": "% nematodes dead", "setting": "[2]; fresh citral, 250 ppm, pH 10, 48 h", "result": 87, "unit": "%"}, {"measurement": "% nematodes dead", "setting": "[2]; one-day old citral, 62.5 ppm, pH 4, 24 h", "result": 40, "unit": "%"}, {"measurement": "% nematodes dead", "setting": "[2]; one-day old citral, 62.5 ppm, pH 4, 48 h", "result": 27, "unit": "%"}, {"measurement": "% nematodes dead", "setting": "[2]; one-day old citral, 62.5 ppm, pH 7, 24 h", "result": 30, "unit": "%"}, {"measurement": "% nematodes dead", "setting": "[2]; one-day old citral, 62.5 ppm, pH 7, 48 h", "result": 27, "unit": "%"}, {"measurement": "% nematodes dead", "setting": "[2]; one-day old citral, 62.5 ppm, pH 10, 24 h", "result": 16, "unit": "%"}, {"measurement": "% nematodes dead", "setting": "[2]; one-day old citral, 62.5 ppm, pH 10, 48 h", "result": 21, "unit": "%"}, {"measurement": "% nematodes dead", "setting": "[2]; one-day old citral, 125 ppm, pH 4, 24 h", "result": 27, "unit": "%"}, {"measurement": "% nematodes dead", "setting": "[2]; one-day old citral, 125 ppm, pH 4, 48 h", "result": 31, "unit": "%"}, {"measurement": "% nematodes dead", "setting": "[2]; one-day old citral, 125 ppm, pH 7, 24 h", "result": 25, "unit": "%"}, {"measurement": "% nematodes dead", "setting": "[2]; one-day old citral, 125 ppm, pH 7, 48 h", "result": 33, "unit": "%"}, {"measurement": "% nematodes dead", "setting": "[2]; one-day old citral, 125 ppm, pH 10, 24 h", "result": 25, "unit": "%"}, {"measurement": "% nematodes dead", "setting": "[2]; one-day old citral, 125 ppm, pH 10, 48 h", "result": 32, "unit": "%"}, {"measurement": "% nematodes dead", "setting": "[2]; one-day old citral, 250 ppm, pH 4, 24 h", "result": 90, "unit": "%"}, {"measurement": "% nematodes dead", "setting": "[2]; one-day old citral, 250 ppm, pH 4, 48 h", "result": 90, "unit": "%"}, {"measurement": "% nematodes dead", "setting": "[2]; one-day old citral, 250 ppm, pH 7, 24 h", "result": 40, "unit": "%"}, {"measurement": "% nematodes dead", "setting": "[2]; one-day old citral, 250 ppm, pH 7, 48 h", "result": 33, "unit": "%"}, {"measurement": "% nematodes dead", "setting": "[2]; one-day old citral, 250 ppm, pH 10, 24 h", "result": 47, "unit": "%"}, {"measurement": "% nematodes dead", "setting": "[2]; one-day old citral, 250 ppm, pH 10, 48 h", "result": 52, "unit": "%"}, {"measurement": "Mean % killed", "setting": "[3]; first experiment (Table 16), 62.5 ppm, 8 replicates", "result": "−2.84", "unit": "%"}, {"measurement": "Mean % killed", "setting": "[3]; first experiment (Table 16), 125 ppm, 8 replicates", "result": 46.29, "unit": "%"}, {"measurement": "Mean % killed", "setting": "[3]; first experiment (Table 16), 250 ppm, 8 replicates", "result": 91.66, "unit": "%"}, {"measurement": "Mean % killed", "setting": "[3]; first experiment (Table 16), 500 ppm, 8 replicates", "result": 95.53, "unit": "%"}, {"measurement": "Mean % killed", "setting": "[3]; repeated protocol (Table 19), 500 ppm, N 10", "result": 99.9, "unit": "%"}, {"measurement": "% dead", "setting": "[4]; 24 h", "result": "87% and 88%"}, {"measurement": "% dead", "setting": "[4]; 48 h", "result": 100, "unit": "%"}]}]}
